Assay results as given in patent US20130310431A1, “USES FOR SUBSTITUTED 2-AMINO-THIAZOLONES IN TREATING ALZHEIMER'S DISEASE” (Amgen Inc, priority 2010, published 2013).
Entries after “also recorded” stand apart in the source; their conditions may differ.

Legend:
aged Wistar rats = test: Novel object recognition study (reversal of age-related behavioral deficits); format: in vivo; conditions: aged (20 months) Wistar rats, 14 day treatment, 3, 10, 30 mg/kg; compared to galantamine; FIG. 1; listed as AMG221
Experimental: Thus, over a 14 day treatment period, young and aged (20 months) Wistar rats were administered formulations as follows: […]
1. Young: pharmaceutical vehicle (no active agent);
2. Young: galantamine, an acetylcholinesterase inhibitor as a positive control;

[1] = Concentration vs. time profiles in plasma, CSF, brain regions and fat after intravenous infusion; format: in vivo, cynomolgus monkeys; conditions: cynomolgus monkey, intravenous infusion for 1 hour
Experimental: The concentration of AMG221 in the biological samples described above was measured as a function of time.
The concentration of (B) in the biological samples described above was measured as a function of time.

Structure (SMILES)	improvement in novel object recognition (aged Wistar rats)	distribution within central nervous system versus fat [1]	time concentrations exceeded the cynomolgus Ki for 11β-HSD1 in unbound plasma [1]	time concentrations exceeded the cynomolgus Ki for 11β-HSD1 in CSF ([1]; CSF)	distribution into fat ([1]; relative to AMG221)
CC(C)[C@]1(C)SC(N[C@H]2C[C@@H]3CC[C@H]2C3)=NC1=O [Compound (A)]	reverses age-related behavioral deficits; also recorded: superior improvement in novel object recognition	distributed uniformly and more rapidly within the central nervous system than in fat	three	–	–
CC(C)[C@]1(C)SC(N[C@H]2C[C@H]3C[C@@H]2C[C@@H]3O)=NC1=O [Compound (B)]	–	distributed uniformly and more rapidly within the central nervous system than in fat	eight	five	distributed poorly into fat
